Laboratory results published in US20240041971A1, “A PROCESS OF PREPARATION OF FLOUR MIX AND ITS USE FOR THE TREATMENT OF DIABETES” (priority 2020, published 2024).

Assays:
Type in all cases: in vivo, Rats
[1] = system: Streptozotocin (STZ) induced type 1 diabetes (T1DM); experiment: Oral Glucose Tolerance Test (OGTT) in STZ induced type 1 diabetes; settings: 10 IU/kg subcutaneous
Experimental: The objective of the study is to evaluate the pharmaceutical preparation in Type-1 Diabetes Mellitus (T1DM) and to compare the efficacy in comparison to standard hypoglycemic agents as insulin. Experimental model: Streptozotocin (STZ) induced type 1 diabetes (T1DM). Dose: STZ (45 mg/kg for rats) for T1DM Route: STZ was administered intraperitoneally (i.p.). Pharmaceutical preparation was administered peroral (p.o.) in three doses. Animals: Rats of Wistar or Sprague Dawley strain weighing from 150-200 g of either sex. The animals were housed under optimal laboratory conditions, maintained on a natural (12 h) light and (12 h) dark cycle and have free access to food and water ad libitum. Animals were acclimatized to laboratory conditions before the tests. Study Design: Animals were divided into 8 groups of 10 animals in each group. • a) Group I: Control or vehicle treated group • b) Group II: Type 1 diabetic group • c) Group III: pharmaceutical preparation (90 mg/kg)+Diabetic animals • d) Group IV: pharmaceutical preparation (180 mg/kg)+Diabetic animals • e) Group V: pharmaceutical preparation (360 mg/kg)+Diabetic animals • f) Group VI: Satcol (60 mg/kg)+Diabetic animals • g) Group VII: pharmaceutical preparation (90 mg/kg)+Insulin (10IU)+Diabetic animals • h) Group VIII: Insulin (10IU)+Diabetic animals Drugs were administered for 28 days after confirmation of diabetes. Parameters to be evaluated: The following parameters were evaluated at confirmation of diabetes and after 28 days of treatment. • a) Body weight, water and food intake was monitored weekly. • b) Blood Glucose Level: Glucose was estimated using diagnostic kits by GOD-POD method and the experiment was conducted following the manufacturer's instructions. • c) Oral Glucose Tolerance Test (OGTT): An oral glucose tolerance test was carried out in conscious rats. For this the rats was fasted overnight and glucose (2 g/kg b.w.) was given from 30% solution by oral gavage. […] for glucose. • d) Measurement of Plasma Insulin Level: Insulin was estimated using insulin ELISA kit (LINCO) and the experiment was conducted following the manufacturer's instructions. It is a solid phase sandwich enzyme-linked immunosorbent assay (ELISA), which uses a microtitre plate reader at 450 nm. Concentrations of insulin were calculated from plotted standard curves. All results were expressed as Mean±SEM. The intergroup variation was measured by one-way analysis of variance (ANOVA) followed by Tukey's test. Statistical significance was considered at P<0.05. The statistical analysis was done using the SPSS Statistical Software version 16 (SPSS Inc. 233 South Wacker Drive, 11th Floor Chicago, IL 60606-6412).

[2] = system: Streptozotocin (STZ) induced type 1 diabetes (T1DM); experiment: Streptozotocin (STZ) induced type 1 diabetes: plasma glucose, body weight, food intake, water intake, urine output; settings: 10 IU/kg subcutaneous
Experimental: The objective of the study is to evaluate the pharmaceutical preparation in Type-1 Diabetes Mellitus (T1DM) and to compare the efficacy in comparison to standard hypoglycemic agents as insulin. Experimental model: Streptozotocin (STZ) induced type 1 diabetes (T1DM). Dose: STZ (45 mg/kg for rats) for T1DM Route: STZ was administered intraperitoneally (i.p.). Pharmaceutical preparation was administered peroral (p.o.) in three doses. Volume Administered: Rat—5 ml/kg Animals: Rats of Wistar or Sprague Dawley strain weighing from 150-200 g of either sex. The animals were housed under optimal laboratory conditions, maintained on a natural (12 h) light and (12 h) dark cycle and have free access to food and water ad libitum. Animals were acclimatized to laboratory conditions before the tests. […] Parameters to be evaluated: The following parameters were evaluated at confirmation of diabetes and after 28 days of treatment. • a) Body weight, water and food intake was monitored weekly. • b) Blood Glucose Level: Glucose was estimated using diagnostic kits by GOD-POD method and the experiment was conducted following the manufacturer's instructions. • c) Oral Glucose Tolerance Test (OGTT): An oral glucose tolerance test was carried out in conscious rats. For this the rats was fasted overnight and glucose (2 g/kg b.w.) was given from 30% solution by oral gavage. Tail blood samples was collected before glucose load and sequentially for every half an hour after glucose load upto 90 minutes and was immediately analysed for glucose. • d) Measurement of Plasma Insulin Level: Insulin was estimated using insulin ELISA kit (LINCO) and the experiment was conducted following the manufacturer's instructions. It is a solid phase sandwich enzyme-linked immunosorbent assay (ELISA), which uses a microtitre plate reader at 450 nm. Concentrations of insulin were calculated from plotted standard curves. All results were expressed as Mean±SEM. The intergroup variation was measured by one-way analysis of variance (ANOVA) followed by Tukey's test. Statistical significance was considered at P<0.05. The statistical analysis was done using the SPSS Statistical Software version 16 (SPSS Inc. 233 South Wacker Drive, 11th Floor Chicago, IL 60606-6412).

[3] = system: Streptozotocin (STZ) induced type 1 diabetes (T1DM); experiment: Plasma insulin level (ELISA) in STZ induced type 1 diabetes; settings: 10 IU/kg subcutaneous
Experimental: The objective of the study is to evaluate the pharmaceutical preparation in Type-1 Diabetes Mellitus (T1DM) and to compare the efficacy in comparison to standard hypoglycemic agents as insulin. Experimental model: Streptozotocin (STZ) induced type 1 diabetes (T1DM). Dose: STZ (45 mg/kg for rats) for T1DM Route: STZ was administered intraperitoneally (i.p.). Pharmaceutical preparation was administered peroral (p.o.) in three doses. Animals: Rats of Wistar or Sprague Dawley strain weighing from 150-200 g of either sex. The animals were housed under optimal laboratory conditions, maintained on a natural (12 h) light and (12 h) dark cycle and have free access to food and water ad libitum. Animals were acclimatized to laboratory conditions before the tests. Study Design: Animals were divided into 8 groups of 10 animals in each group. • a) Group I: Control or vehicle treated group • b) Group II: Type 1 diabetic group • c) Group III: pharmaceutical preparation (90 mg/kg)+Diabetic animals • d) Group IV: pharmaceutical preparation (180 mg/kg)+Diabetic animals • e) Group V: pharmaceutical preparation (360 mg/kg)+Diabetic animals • f) Group VI: Satcol (60 mg/kg)+Diabetic animals • g) Group VII: pharmaceutical preparation (90 mg/kg)+Insulin (10IU)+Diabetic animals • h) Group VIII: Insulin (10IU)+Diabetic animals Drugs were administered for 28 days after confirmation of diabetes. Parameters to be evaluated: […]) Body weight, water and food intake was monitored weekly. • b) Blood Glucose Level: Glucose was estimated using diagnostic kits by GOD-POD method and the experiment was conducted following the manufacturer's instructions. • c) Oral Glucose Tolerance Test (OGTT): An oral glucose tolerance test was carried out in conscious rats. For this the rats was fasted overnight and glucose (2 g/kg b.w.) was given from 30% solution by oral gavage. Tail blood samples was collected before glucose load and sequentially for every half an hour after glucose load upto 90 minutes and was immediately analysed for glucose. • d) Measurement of Plasma Insulin Level: Insulin was estimated using insulin ELISA kit (LINCO) and the experiment was conducted following the manufacturer's instructions. It is a solid phase sandwich enzyme-linked immunosorbent assay (ELISA), which uses a microtitre plate reader at 450 nm. Concentrations of insulin were calculated from plotted standard curves. All results were expressed as Mean±SEM. The intergroup variation was measured by one-way analysis of variance (ANOVA) followed by Tukey's test. Statistical significance was considered at P<0.05. The statistical analysis was done using the SPSS Statistical Software version 16 (SPSS Inc. 233 South Wacker Drive, 11th Floor Chicago, IL 60606-6412).

[4] = system: Streptozotocin-nicotinamide induced Type-2 diabetes (T2DM); experiment: Streptozotocin-nicotinamide induced Type-2 diabetes: Glycosylated Haemoglobin (HbA1c); settings: 5 mg/kg oral gavage
Experimental: (§1) The objective of the study is to evaluate pharmaceutical preparation in Type-2 diabetes mellitus (T2DM) and to compare efficacy of these in comparison to standard hypoglycemic agent pioglitazone.
(§2) Experimental model: Streptozotocin-nicotinamide induced Type-2 diabetes (T2DM): Single intraperitoneal injection of nicotinamide and streptozotocin was administered. Dose: STZ (45 mg/kg for rats)+Nicotinamide (230 mg/kg for rats) for T2DM pharmaceutical preparation (45.90 & 180 mg/kg). Route: STZ & Nicotinamide were administered intraperitoneally (i.p.). Pharmaceutical preparation & pioglitazone were administered per orally (oral gavage). Volume Administered: Rat—5 mL/kg Animals: Rats of Wistar strain weighing from 150-200 g of either sex used for the study. The animals were housed under optimal laboratory conditions, maintained on a natural (12 h) light and (12 h) dark cycle and had free access to food and water ad libitum. Animals were acclimatized to laboratory conditions before the tests. Study Design: Animals were divided into 6 groups of 5-8 animals in each group: • a) Group I: Control or vehicle treated group • b) Group II: Type 2 diabetic group • c) Group III: Diabetic animals+pharmaceutical preparation (45 mg/kg) • d) Group IV: Diabetic animals+pharmaceutical preparation (90 mg/kg) • e) Group V: Diabetic animals +pharmaceutical preparation (180 mg/kg) • f) Group VI: Diabetic animals+Pioglitazone (5 mg/kg)
(§3) Pharmaceutical preparation was administered after confirmation of diabetes for 28 days.
Parameters to be evaluated: The following parameters were evaluated after confirmation of diabetes on day 1, 7, 14, 21 and 28 days. • a) Body weight, water and food intake was monitored. • b) Blood Glucose Level: Glucose was estimated using diagnostic kits by GOD-POD method and the experiment was conducted following the manufacturer's instructions. • c) Estimation of Glycosylated Haemoglobin (HbA1c): HbA1c is a good indicator of protein glycosylation. Excess of glucose conjugates with proteins to form glycosylated moieties. It was estimated by ion-resin method using commercial kits.

[5] = system: Streptozotocin-nicotinamide induced Type-2 diabetes (T2DM); experiment: Streptozotocin-nicotinamide induced Type-2 diabetes: plasma glucose; settings: 5 mg/kg oral gavage
Experimental: as §1, §2, §3
Parameters to be evaluated: The […]) Body weight, water and food intake was monitored. • b) Blood Glucose Level: Glucose was estimated using diagnostic kits by GOD-POD method and the experiment was conducted following the manufacturer's instructions. • c) Estimation of Glycosylated Haemoglobin (HbA1c): HbA1c is a good indicator of protein glycosylation. Excess of glucose conjugates with proteins to form glycosylated moieties. It was estimated by ion-resin method using commercial kits.

Compound: Insulin
- OGTT Mean Plasma Glucose ([1]; 0.5 hour): 389 ± 95.77 mg/dL
- OGTT Mean Plasma Glucose ([1]; 2.0 hour): 315 ± 102.13 mg/dL
- OGTT Mean Plasma Glucose ([1]; 4.0 hour): 311 ± 217.52 mg/dL
- OGTT Mean Plasma Glucose ([1]; 8.0 hour): 233 ± 29.73 mg/dL
- Mean Plasma Glucose ([2]; 6th Week): 226 ± 12.4 mg/dL
- Mean Plasma Glucose ([2]; 10th Week): 233 ± 16.0 mg/dL
- Food Intake ([2]; Day 1): 21 ± 0.66 gm
- Mean Body Weight ([2]; Day 1): 278 ± 3.7 gm
- Mean Plasma Glucose ([2]; Day 1): 352 ± 42.4 mg/dL
- Urine Volume ([2]; Day 1): 9 ± 0.63 mL
- Water Intake ([2]; Day 1): 9 ± 0.95 mL
- Food Intake ([2]; Day 7): 23 ± 0.43 gm
- Mean Body Weight ([2]; Day 7): 277 ± 4.4 gm
- Mean Plasma Glucose ([2]; Day 7): 249 ± 5.7 mg/dL
- Urine Volume ([2]; Day 7): 16 ± 1.91 mL
- Water Intake ([2]; Day 7): 14 ± 0.85 mL
- Food Intake ([2]; Day 14): 27 ± 0.58 gm
- Mean Body Weight ([2]; Day 14): 280 ± 3.9 gm
- Mean Plasma Glucose ([2]; Day 14): 222 ± 14.1 mg/dL
- Water Intake ([2]; Day 14): 20 ± 0.86 mL
- Food Intake ([2]; Day 21): 30 ± 0.56 gm
- Mean Body Weight ([2]; Day 21): 279 ± 4.5 gm
- Mean Plasma Glucose ([2]; Day 21): 233 ± 13.3 mg/dL
- Urine Volume ([2]; Day 21): 26 ± 3.61 mL
- Water Intake ([2]; Day 21): 25 ± 2.77 mL
- Food Intake ([2]; Day 28): 34 ± 0.93 gm
- Mean Body Weight ([2]; Day 28): 279 ± 4.9 gm
- Mean Plasma Glucose ([2]; Day 28): 211 ± 8.6 mg/dL
- Urine Volume ([2]; Day 28): 26 ± 4.43 mL
- Water Intake ([2]; Day 28): 31 ± 3.08 mL
- Percentage Change in plasma insulin ([3]; Day 1): 0%
- Percentage Change in plasma insulin ([3]; Day 7): −42%
- Percentage Change in plasma insulin ([3]; Day 14): −39%
- Percentage Change in plasma insulin ([3]; Day 21): −37%
- Percentage Change in plasma insulin ([3]; Day 28): −34%

Compound: CCc1ccc(CCOc2ccc(CC3SC(=O)NC3=O)cc2)nc1 (stereo not drawn) [Pio, Pioglitazone]
- Glycosylated Hemoglobin ([4]; Day 1): 6.66
- Glycosylated Hemoglobin ([4]; Day 7): 10.78
- Glycosylated Hemoglobin ([4]; Day 14): 9.67
- Glycosylated Hemoglobin ([4]; Day 21): 8.44
- Glycosylated Hemoglobin ([4]; Day 28): 7.96
- Mean Plasma Glucose ([5]; Day 3): 144 mg/dL
- Mean Plasma Glucose ([5]; Day 7): 149 mg/dL
- Mean Plasma Glucose ([5]; Day 14): 141 mg/dL
- Mean Plasma Glucose ([5]; Day 21): 132 mg/dL
- Mean Plasma Glucose ([5]; Day 28): 126 mg/dL
